Experimental data reported in paper PMC3919030 (Journal of molecular biology, 2013).

Columns and labels:
Assay in all cases: size exclusion chromatography
Format in all cases: binding
SsoVps4 [1] = target: SsoVps4 (Saccharolobus solfataricus, UniProt Q97ZJ7, E206Q); conditions: 2 mM MgCl2, pH 7.4, 4 °C, Walker B mutant
Vps4p = target: T1, Vps4p (Saccharomyces cerevisiae, UniProt P52917, E233Q); conditions: 2 mM MgCl2, pH 7.4, 4 °C; 1 mM ATP; Walker B mutant
T1 sequence (P52917 1-437 E233Q): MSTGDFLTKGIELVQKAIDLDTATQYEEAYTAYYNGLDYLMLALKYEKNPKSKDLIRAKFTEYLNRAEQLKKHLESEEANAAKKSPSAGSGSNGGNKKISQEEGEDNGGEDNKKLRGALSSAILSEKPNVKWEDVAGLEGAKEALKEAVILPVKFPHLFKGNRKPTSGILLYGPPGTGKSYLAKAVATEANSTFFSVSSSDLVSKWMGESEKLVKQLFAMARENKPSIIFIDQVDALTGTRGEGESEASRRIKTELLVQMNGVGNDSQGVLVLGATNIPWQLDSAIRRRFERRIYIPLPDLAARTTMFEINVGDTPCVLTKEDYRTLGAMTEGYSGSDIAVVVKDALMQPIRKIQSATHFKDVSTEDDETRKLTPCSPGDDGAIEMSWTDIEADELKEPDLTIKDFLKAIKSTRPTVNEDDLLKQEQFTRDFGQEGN

SsoVps4 [2] = target: T2, SsoVps4 (Saccharolobus solfataricus, UniProt Q97ZJ7); conditions: 2 mM MgCl2, pH 7.4, 4 °C; 1 mM ADP
T2 sequence (Q97ZJ7 1-372): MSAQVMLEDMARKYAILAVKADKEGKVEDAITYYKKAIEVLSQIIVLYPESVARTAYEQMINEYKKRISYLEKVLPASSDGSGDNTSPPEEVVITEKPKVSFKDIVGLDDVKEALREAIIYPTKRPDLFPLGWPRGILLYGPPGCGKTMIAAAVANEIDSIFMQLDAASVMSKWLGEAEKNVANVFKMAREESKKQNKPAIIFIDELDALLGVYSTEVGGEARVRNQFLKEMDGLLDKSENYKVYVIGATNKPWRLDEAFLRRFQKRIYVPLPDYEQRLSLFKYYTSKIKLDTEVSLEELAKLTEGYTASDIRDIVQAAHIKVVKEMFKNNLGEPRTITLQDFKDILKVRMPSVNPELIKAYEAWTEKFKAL

Nc1ncnc2c1ncn2[C@@H]1O[C@H](COP(=O)(O)OP(=O)(O)OP(=O)(O)O)[C@@H](O)[C@H]1O [ATP]
size exclusion chromatography (nucleotide-induced shift of oligomer) (SsoVps4 [1]; 1 mM ATP): both wild type and E206Q SsoVps4 eluted as lower molecular weight complexes
size exclusion chromatography (nucleotide-bound oligomer) (Vps4p): ATP-bound Vps4p(E233Q) migrated more rapidly than the wild type protein

Nc1ncnc2c1ncn2[C@@H]1O[C@H](COP(=O)(O)OP(=O)(O)O)[C@@H](O)[C@H]1O [ADP]
size exclusion chromatography (nucleotide-induced shift of oligomer) (SsoVps4 [1]; 1 mM ADP): both wild type and E206Q SsoVps4 eluted as lower molecular weight complexes
size exclusion chromatography (nucleotide-induced shift of oligomer) (SsoVps4 [2]): both proteins migrated slightly more rapidly when bound to ADP than ATP
